From patent publication US20040072882A1 (priority 2002, published 2004)
“Also recorded” adds a separate entry of the source. Read-outs that look alike come from different tables or passages of the source.

Assays:
[1] = Pharmacokinetics of epothilone D in patients (plasma levels by LC/MS/MS after intravenous infusion); assay type: in vivo, human
Procedure: (§1) H1/H2 blockers were given orally to the subjects 30-60 minutes prior to infusion to prevent any adverse reactions to the CREMOPHOR® in the composition. […] Thus, a dosage of 9 mg/m^2 required about 10-15 minutes of infusing, while a dose of 150 mg/m^2 required 3-4 hours of dosing. The patients were monitored by testing CBC with differential weekly, various laboratory tests every three weeks, and physical exams including neurological assessment every three weeks. Tumor assessments were made every six weeks.
Both the pharmacokinetics and pharmacodynamics of epothilone D were measured in the subjects. Plasma concentration as a function of time was measured in the first- and second cycles at various dose levels in several subjects.
As would be expected, the levels at the end of infusion are high and taper off gradually, and the concentration levels at any particular time are dose-dependent.

[2] = tested on: advanced malignancy, either primary or metastatic; test: Tumor assessment / tumor markers in patients with advanced malignancy; assay type: in vivo, human
Text: Other criteria included adequate liver, renal and hematopoietic function, i.e., recovery from reversible effects of previous therapies, if any. Subjects included in the study provided their informed consent.
Approximately 52 patients meeting the above-described criteria were enrolled in the study. Of the patients treated, approximately 60% were male and 40% female, ranging in age from 23 to 85 years. A wide range of tumor types were included in the study, including colon, ovarian, prostate, and lung tumors. Most of the enrollees had received multiple rounds of other chemotherapies prior to entering the study.
as §1

[3] = Toxicity monitoring in the patient study; assay type: in vivo, human
Text: In order to ensure that toxic limits are not exceeded, the effects of the administration on the subject are monitored. Possible effects include neurological impairment(s), which may manifest itself as cognitive/perceptual abnormalities, numbness in the limbs, difficulty in walking, dizziness, and the like. […] Other side effects may include nausea and vomiting, fatigue, rash, alopecia, and alteration in vital signs such as orthostatic hypotension.
H1/H2 blockers were given orally to the subjects 30-60 minutes prior to infusion to prevent any adverse reactions to the CREMOPHOR® in the composition. […] The patients were monitored by testing CBC with differential weekly, various laboratory tests every three weeks, and physical exams including neurological assessment every three weeks. Tumor assessments were made every six weeks.

[4] = tested on: microtubules in interphase cells (PBMC's); test: Microtubule bundle formation in mononuclear cells (PBMC's) isolated from treated patients, immunofluorescence; assay type: in vivo, human
Text: The activity of the drug can be assessed by measuring bundling of microtubules in interphase cells. This is considered the hallmark of activity of microtubule-stabilizing agents such as paclitaxel. The bundle formation can readily be measured by immunofluorescence or Western blotting. In a typical determination, whole blood is collected from patients and mononuclear cells (PBMC's) are isolated for evaluation of bundle formation.
In addition to monitoring toxicity and pharmacokinetics, the pharmacodynamics of treatment was also monitored. The standard criterion is the ability of the drug to effect bundling of microtubules in interphase cells. Whole blood was collected from patients and mononuclear cells (PBMC's) were isolated. To measure bundle formation, the PBMC's were resuspended in 5% FBS/PBS containing 0.75×10^6 cells/mL and used to make cytospin preparations. The cells were then fixed in 100% methanol for 10 minutes at […], air dried and stored at 4° C. prior to immunostaining. For immunostaining, the cells were blocked in 10% Normal Goat Serum in PBS for 20 minutes and incubated with a 1:100 dilution of {tilde over (□)}tubulin monoclonal antibody diluted in 5% Normal Goat Serum in PBS for 1 hour at 37° C. The slides were then rinsed in PBS and incubated with 1:200 Cy3-conjugated goat anti-mouse IgG for 1 hour in the dark before mounting. Cell numbers were quantified using a Zeiss AXIOSCOP microscope and evaluated at levels of 500 cells per slide by individual investigators.

[5] = paclitaxel comparison value; cited from earlier work

SMILES | dependence of the area under the curve (AUC) on dosage ([1]; dose range about 9 mg/m^2 to about 150 mg/m^2, first and second cycles) | half-life ([1]; human, in vivo, intravenous infusion, summary over study, read-out: half-life, mean value) | clearance ([1]; human, in vivo, patients treated at 100 mg/m^2, averaged, read-out: Drug clearance (converted)) | half-life ([1]; human, in vivo, patients treated at 100 mg/m^2, averaged, read-out: elimination half-life (converted)) | Vd ([1]; human, in vivo, patients treated at 100 mg/m^2, averaged, read-out: volume of distribution (Vz)) | difference in pharmacokinetics between cycles ([1]; two cycles, three subjects at 60 mg/m^2) | disease status in patients receiving multiple cycles (at least four months) ([2]; human, in vivo) | tumor markers ([2]; ovarian, pancreatic, testicular, breast, and biliary diseases) | time of toxicity ([3]; dose level between 9 mg and about 60 mg per m^2) | severity of toxicities ([3]; dose-dependent toxicities) | onset of toxicity ([3]; higher dosages such as 90 mg/m^2 and […]^2) | myelosuppression ([3]; human, in vivo) | percentage of PBMCs with microtubule bundles ([4]; dosage 18 mg/m^2) | percentage of PBMCs with microtubule bundles ([4]; dosage 120 mg/m^2) | bundle formation at low dosage ([4]; dosage as low as 18 mg/m^2) | volume of distribution (Vz) [5]
C/C1=C/C[C@@H](/C(C)=C/c2csc(C)n2)OC(=O)C[C@H](O)C(C)(C)C(=O)[C@H](C)[C@@H](O)[C@@H](C)CCC1 [epothilone D, Desoxyepothilone B] | linear correlation | 8 to 10 h | 315 mL/min | 8.8 ± 2.4 h | 232 ± 82 L | no discernable difference | suggestive of stable disease | Tumor marker reductions were observed | start at day five and continue to day 15 | generally of Grade-2 in severity | as soon as the day after infusion is terminated | generally not been seen; also recorded: No clear evidence of myelosuppression was observed | 12% | 55% | Substantial amounts of bundle formation | –
CC(=O)O[C@H]1C(=O)[C@@]2(C)[C@H]([C@H](OC(=O)c3ccccc3)[C@]3(O)C[C@H](OC(=O)[C@H](O)[C@@H](NC(=O)c4ccccc4)c4ccccc4)C(C)=C1C3(C)C)[C@]1(OC(C)=O)CO[C@@H]1C[C@@H]2O [paclitaxel] | – | – | – | – | – | – | – | – | – | – | – | – | – | – | – | 140±70 L/m^2
